Like-named read-outs stand apart in the source and are kept apart here.
How the values were obtained:
[1] = tested on: K562 (chronic myelogenous leukaemia); experiment: Effect of compounds on tumor cell lines (assay of Latham et al.), K562; type: cell-based; conditions: Table 1, K562 cells, examined 96 hours after treatment, 1 μM to 100 μM in DMSO, read-out: K 562 potency (IC50)
Method: (§1) The effect of the compounds of the invention on tumor cells was determined by the assay described by Latham et al., Oncogene 12:827-837 (1996). Tumor cells K562 (chronic myelogenous leukaemia) or DU145 (prostate cancer) were plated in 12-well dishes at a cell density of 2.5×10^4 cells well. The plated cells were treated 24 hours later with a compound of the invention dissolved in DMSO at multiple concentrations ranging from 1 μM to 100 μM. The plates were examined 96 hours later under an inverted microscope, Olympus CK-2 using an 10× objective, and compound activity was noted by physical observation. When necessary, the total number of viable cells was determined by trypsinizing the wells and counting the number of viable cells, as determined by trypan blue exclusion, using a hemacytometer.
(§2) The representative compounds listed in Tables 1-5 are shown by way of illustration, and are not intended to limit the scope of the invention. The compounds are prepared and tested by methods based on those described above, except that the compound of Table 5 was dissolved in DMSO at multiple concentrations ranging from 0.1 μM to 100 μM

DU145 (prostate cancer) = experiment: Effect of compounds on tumor cell lines (assay of Latham et al.), DU145; type: cell-based; conditions: Table 1, DU145 cells, examined 96 hours after treatment, 1 μM to 100 μM in DMSO, read-out: DU 145 potency (IC50)
Method: as §1, §2

O=C(C(=Cc1ccc([N+](=O)[O-])c(O)c1)Sc1c(F)c(F)c(F)c(F)c1F)c1ccc(Br)cc1 [Example 1] showed an IC50 [1] of 1 to 10 µM and an IC50 (DU145 (prostate cancer)) of 10 to 25 µM.
In the case of O=C(C(=Cc1ccc(O)c([N+](=O)[O-])c1)Sc1c(F)c(F)c(F)c(F)c1F)c1ccc(Br)cc1 [Example 2], the IC50 [1] is reported as 10 to 25 µM and the IC50 (DU145 (prostate cancer)) is reported as 10 to 25 µM.
O=C(C(=Cc1cc(Cl)cc(Cl)c1Cl)Sc1ccccc1Br)c1ccc(Cl)cc1 [Example 3] gave an IC50 [1] of 50 to 100 µM and an IC50 (DU145 (prostate cancer)) of 25 to 50 µM.
O=C(C(=Cc1c(O)cc(O)cc1O)Sc1ccccc1Br)c1ccc(Br)cc1 [Example 4] showed an IC50 [1] of over 100 µM and an IC50 (DU145 (prostate cancer)) of over 100 µM.
For O=C(C(=Cc1c(O)cc(O)cc1O)Sc1ccccc1Br)c1ccc(Cl)cc1 [Example 5], the IC50 [1] was over 100 µM and the IC50 (DU145 (prostate cancer)) was over 100 µM.
Work on O=C(C(=Cc1ccc(O)cc1O)Sc1ccccc1Br)c1ccc(Br)cc1 [Example 6] yielded an IC50 [1] of 50 to 100 µM and an IC50 (DU145 (prostate cancer)) of 50 to 100 µM.
For O=C(C(=Cc1ccc(O)cc1O)Sc1ccccc1Br)c1ccc(Cl)cc1 [Example 7], the IC50 [1] was 50 to 100 µM and the IC50 (DU145 (prostate cancer)) was 50 to 100 µM.
Compound O=C(C(=Cc1ccccc1O)Sc1ccccc1Br)c1ccc(Br)cc1 [Example 8] has an IC50 [1] of 50 to 100 µM and an IC50 (DU145 (prostate cancer)) of 50 to 100 µM.
O=C(C(=Cc1ccc(Br)cc1)Sc1ccccc1Br)c1ccc(Br)cc1 [Example 9] was tested, and the IC50 [1] was 1 to 10 µM and the IC50 (DU145 (prostate cancer)) was 1 to 10 µM.
O=C(C(=Cc1ccc(O)c([N+](=O)[O-])c1)Sc1ccccc1Br)c1ccc(Br)cc1 [Example 10] was tested, and the IC50 [1] was 10 to 25 µM and the IC50 (DU145 (prostate cancer)) was 1 to 10 µM.
Compound O=C(C(=Cc1ccc(O)c([N+](=O)[O-])c1)Sc1ccccc1Br)c1ccc(Cl)cc1 [Example 11] has an IC50 [1] of 10 to 25 µM and an IC50 (DU145 (prostate cancer)) of 25 to 50 µM.
CN(C)c1ccc(C=C(Sc2ccccc2Br)C(=O)c2ccc(Br)cc2)cc1 [Example 12] showed an IC50 [1] of over 100 µM and an IC50 (DU145 (prostate cancer)) of over 100 µM.
Work on O=C(C(=Cc1c(O)cc(O)cc1O)Sc1ccc(Br)cc1)c1ccc(Cl)cc1 [Example 13] yielded an IC50 [1] of 50 to 100 µM and an IC50 (DU145 (prostate cancer)) of 25 to 50 µM.
Compound COc1cc(OC)c(C=C(Sc2ccc(Br)cc2)C(=O)c2ccc(Cl)cc2)c(OC)c1 [Example 14] has an IC50 [1] of 50 to 100 µM and an IC50 (DU145 (prostate cancer)) of 50 to 100 µM.
O=C(/C(=C\c1ccc(Cl)cc1Cl)Sc1ccc(Br)cc1)c1ccc(Br)cc1 [Example 15, (E)-1-(4-Bromophenyl)-2-(4-bromophenylthio)-3-(2,4-dichlorophenyl)-prop-2-en-1-one] was tested, and the IC50 ([1]; Homo sapiens) was 1 to 10 µM and the IC50 (DU145 (prostate cancer); Homo sapiens, DU-145) was 1 to 10 µM.
Compound O=C(C(=Cc1ccc(O)cc1O)Sc1ccc(Br)cc1)c1ccc(Cl)cc1 [Example 16] has an IC50 [1] of 25 to 50 µM and an IC50 (DU145 (prostate cancer)) of 50 to 100 µM.
Compound O=C(C(=Cc1ccc(F)cc1F)Sc1ccc(Br)cc1)c1ccc(Br)cc1 [Example 17] has an IC50 [1] of 1 to 10 µM and an IC50 (DU145 (prostate cancer)) of 1 to 10 µM.
O=C(C(=Cc1ccc(F)cc1F)Sc1ccc(Br)cc1)c1ccc(Cl)cc1 [Example 18] was tested, and the IC50 [1] was 1 to 10 µM and the IC50 (DU145 (prostate cancer)) was 1 to 10 µM.
With Cc1ccc(C)c(C=C(Sc2ccc(Br)cc2)C(=O)c2ccc(Cl)cc2)c1 [Example 19] the IC50 [1] was 10 to 25 µM and the IC50 (DU145 (prostate cancer)) was 10 to 25 µM.
Work on Nc1c(Br)cc(Br)cc1C=C(Sc1ccc(Br)cc1)C(=O)c1ccc(Br)cc1 [Example 20] yielded an IC50 [1] of over 100 µM and an IC50 (DU145 (prostate cancer)) of over 100 µM.
In the case of O=C(C(=Cc1ccccc1OCc1ccccc1)Sc1ccc(Br)cc1)c1ccc(Cl)cc1 [Example 21], the IC50 [1] is reported as 10 to 25 µM and the IC50 (DU145 (prostate cancer)) is reported as 10 to 25 µM.
Work on O=C(C(=Cc1ccc(F)cc1Cl)Sc1ccc(Br)cc1)c1ccc(Br)cc1 [Example 22] yielded an IC50 [1] of 1 to 10 µM and an IC50 (DU145 (prostate cancer)) of 1 to 10 µM.
COc1ccc(C=C(Sc2ccc(Br)cc2)C(=O)c2ccc(Br)cc2)c(F)c1 [Example 23] was tested, and the IC50 [1] was 1 to 10 µM and the IC50 (DU145 (prostate cancer)) was 10 to 25 µM.
Compound O=C(C(=Cc1ccccc1F)Sc1ccc(Br)cc1)c1ccc(Cl)cc1 [Example 24] has an IC50 [1] of 1 to 10 µM and an IC50 (DU145 (prostate cancer)) of 10 to 25 µM.
With COc1ccccc1C=C(Sc1ccc(Br)cc1)C(=O)c1ccc(Cl)cc1 [Example 25] the IC50 [1] was 10 to 25 µM and the IC50 (DU145 (prostate cancer)) was 10 to 25 µM.
For Cc1cc(C)cc(C=C(Sc2ccc(Br)cc2)C(=O)c2ccc(Cl)cc2)c1 [Example 26], the IC50 [1] was 1 to 10 µM and the IC50 (DU145 (prostate cancer)) was 10 to 25 µM.
Compound O=C(C(=Cc1ccc(O)c(Br)c1)Sc1ccc(Br)cc1)c1c(F)c(F)c(F)c(F)c1F [Example 27] has an IC50 [1] of 1 to 10 µM and an IC50 (DU145 (prostate cancer)) of 1 to 10 µM.
Compound O=C(O)c1cc(C=C(Sc2ccc(Br)cc2)C(=O)c2c(F)c(F)c(F)c(F)c2F)ccc1O [Example 28] has an IC50 [1] of 25 to 50 µM and an IC50 (DU145 (prostate cancer)) of 25 to 50 µM.
O=C(C(=Cc1ccc([N+](=O)[O-])c(O)c1)Sc1ccc(Br)cc1)c1c(F)c(F)c(F)c(F)c1F [Example 30] was tested, and the IC50 [1] was 1 to 10 µM and the IC50 (DU145 (prostate cancer)) was 1 to 10 µM.
O=C(C(=Cc1c[nH]c2ccccc12)Sc1ccc(Br)cc1)c1ccc(Br)cc1 [Example 31] was tested, and the IC50 [1] was 1 to 10 µM and the IC50 (DU145 (prostate cancer)) was 1 to 10 µM.
O=C(C(=Cc1ccc(Br)c(O)c1)Sc1ccc(Br)cc1)c1ccc(Br)cc1 [Example 32] gave an IC50 [1] of 1 to 10 µM and an IC50 (DU145 (prostate cancer)) of 1 to 10 µM.
In the case of O=C(C(=Cc1ccc(Br)c([N+](=O)[O-])c1)Sc1ccc(Br)cc1)c1ccc(Br)cc1 [Example 34], the IC50 [1] is reported as 1 to 10 µM and the IC50 (DU145 (prostate cancer)) is reported as 1 to 10 µM.
With O=C(C(=Cc1ccc(Br)cc1)Sc1ccc(Br)cc1)c1ccc(Br)cc1 [Example 35] the IC50 [1] was 1 to 10 µM and the IC50 (DU145 (prostate cancer)) was 1 to 10 µM.
Work on O=C(C(=Cc1ccc(Br)cc1)Sc1ccc(Br)cc1)c1ccc(Cl)cc1 [Example 36] yielded an IC50 [1] of 1 to 10 µM and an IC50 (DU145 (prostate cancer)) of 1 to 10 µM.
For O=C(C(=Cc1ccc(Cl)c([N+](=O)[O-])c1)Sc1ccc(Br)cc1)c1ccc(Br)cc1 [Example 37], the IC50 [1] was 1 to 10 µM and the IC50 (DU145 (prostate cancer)) was 1 to 10 µM.
O=C(C(=Cc1ccc(Cl)cc1)Sc1ccc(Br)cc1)c1ccc(Br)cc1 [Example 38] gave an IC50 [1] of 1 to 10 µM and an IC50 (DU145 (prostate cancer)) of 1 to 10 µM.
For COc1cc(C=C(Sc2ccc(Br)cc2)C(=O)c2ccc(Br)cc2)ccc1F [Example 39], the IC50 [1] was 1 to 10 µM and the IC50 (DU145 (prostate cancer)) was 1 to 10 µM.
For O=C(C(=Cc1ccc(F)cc1)Sc1ccc(Br)cc1)c1ccc(Br)cc1 [Example 40], the IC50 [1] was 1 to 10 µM and the IC50 (DU145 (prostate cancer)) was 10 to 25 µM.
COc1cc(C=C(Sc2ccc(Br)cc2)C(=O)c2ccc(Br)cc2)ccc1O [Example 41] gave an IC50 [1] of 1 to 10 µM and an IC50 (DU145 (prostate cancer)) of 1 to 10 µM.
O=C(C(=Cc1ccc(O)c([N+](=O)[O-])c1)Sc1ccc(Br)cc1)c1c(F)c(F)c(F)c(F)c1F [Example 42] was tested, and the IC50 [1] was 1 to 10 µM and the IC50 (DU145 (prostate cancer)) was 1 to 10 µM.
O=C(C(=Cc1ccc(O)c([N+](=O)[O-])c1)Sc1ccc(Br)cc1)c1ccc(Br)cc1 [Example 43] was tested, and the IC50 [1] was 1 to 10 µM and the IC50 (DU145 (prostate cancer)) was 1 to 10 µM.
CSc1ccc(C=C(Sc2ccc(Br)cc2)C(=O)c2ccc(Cl)cc2)cc1 [Example 46] gave an IC50 [1] of 1 to 10 µM and an IC50 (DU145 (prostate cancer)) of 1 to 10 µM.
COc1ccc(C=C(Sc2ccc(Br)cc2)C(=O)c2ccc(Br)cc2)cc1 [Example 47] showed an IC50 [1] of 1 to 10 µM and an IC50 (DU145 (prostate cancer)) of 25 to 50 µM.
For COc1ccc(C=C(Sc2ccc(Br)cc2)C(=O)c2ccc(Cl)cc2)cc1 [Example 48], the IC50 [1] was 1 to 10 µM and the IC50 (DU145 (prostate cancer)) was 50 to 100 µM.
For CN(C)c1ccc(C=C(Sc2ccc(Br)cc2)C(=O)c2ccc(Cl)cc2)cc1 [Example 49], the IC50 [1] was over 100 µM and the IC50 (DU145 (prostate cancer)) was over 100 µM.
O=C(C(=Cc1ccc(Oc2ccccc2)cc1)Sc1ccc(Br)cc1)c1ccc(Br)cc1 [Example 50] showed an IC50 [1] of 50 to 100 µM and an IC50 (DU145 (prostate cancer)) of 50 to 100 µM.
O=C(C(=Cc1ccc(OC(F)(F)F)cc1)Sc1ccc(Br)cc1)c1ccc(Br)cc1 [Example 51] was tested, and the IC50 [1] was 1 to 10 µM and the IC50 (DU145 (prostate cancer)) was 1 to 10 µM.
In the case of COc1ccc2[nH]cc(C=C(Sc3ccc(Br)cc3)C(=O)c3ccc(Br)cc3)c2c1 [Example 52], the IC50 [1] is reported as 1 to 10 µM and the IC50 (DU145 (prostate cancer)) is reported as 1 to 10 µM.
Work on O=C(C(=Cc1ccc(Cl)cc1)Sc1ccc(Cl)cc1)c1ccc(Cl)cc1 [Example 53] yielded an IC50 [1] of 1 to 10 µM and an IC50 (DU145 (prostate cancer)) of 1 to 10 µM.
